Experimental data as given in patent US20240293422A1, “SHP2 AND CDK4/6 INHIBITORS COMBINATION THERAPIES FOR THE TREATMENT OF CANCER” (Erasca, Inc., priority 2021, published 2024).

Assays:
[1] = tested on: KRAS^G12S mutated A549 cells; assay: Clonogenic assay (colony formation), A549; assay type: cell-based, human; settings: for colony formation (in words): A549, 2000 cells per well, 14 days, crystal violet, various concentrations; for reduction of colony formation: A549, quantification FIG. 1B, each agent alone or combination, concentrations not given
Experimental: (§1) Cells and Reagents: The cell lines were obtained from ATCC (SW620 #CCL-227, A549 #CCL-185 and NCI-H441 #HTB-174). The cell lines, LS180 (ECACC #87021202) and Gp2D (ECACC #95090714). The cell line, CAL 27 was cultured in DMEM (Gibco #). SCC-4, SCC-15, SCC-25, SCC-9 cell lines were cultured in a 1:1 mixture of DMEM and Ham's F12 medium containing 1.2 g/L sodium bicarbonate, 2.5 mM L-glutamine, 15 mM HEPES and 0.5 mM sodium pyruvate supplemented with 400 ng/ml hydrocortisone, 90%; fetal bovine serum, 10% (Hyclone #SH-30071.03) and Penicillin/Streptomycin (Thermo Fisher #15070-063). The cells were maintained at 37° C./5% CO2.
(§2) Clonogenic assay: The cells were plated onto 6-well plates in 2 ml cell culture medium. The cells were incubated overnight and treated with various concentration of the compound of Formula I and Palbociclib. After 7 days incubation, the medium was replaced with fresh medium, cells were treated again with same concentration of the compound of Formula I and Palbociclib and incubated for additional 7 days. After 14 days of total incubation, the cells were washed with PBS twice and fixed 30 mins with 4% formaldehyde. The cells were washed twice with PBS and incubated with 0.1% crystal violet for 60 mins. After the crystal violet staining, the cells were washed five times with water and let it dry at room temperature. After the plates were dried, the crystal staining was de-stained with 1 ml of 10% acetic acid and absorbance was measured at 560 nm.
(§3) Cell lines from each of KRAS^G12D (LS513 and Gp2D), KRAS^G12S (A549) and KRAS^G12V (NCI-H441 and SW620) mutations were split onto 6-well plates in 2 ml cell culture medium. The cells were incubated overnight and treated with various concentration of the compound of Formula I and Palbociclib and assayed using the Clonogenic Assay protocol described above.
The A549 cells were split onto 6 well plates (2000 cells per well). After overnight incubation, the cells were treated with the compound of Formula I alone and treated in combination with palbociclib and colony formation was determined as mentioned in method. […] (FIG. 1A).

[2] = tested on: KRAS^G12V mutated NCI-H441 cells; assay: Clonogenic assay (colony formation), NCI-H441; assay type: cell-based, human; settings: for colony formation (in words): NCI-H441, 8000 cells per well, 14 days, crystal violet, various concentrations
Experimental: as §1, §2, §3
(§4) The NCI-H441 and SW620 cells were split onto 6 well plates (8000 and 4000 calls per well respectively). After overnight incubation, the cells were treated with the compound of Formula I alone and treated in combination with palbociclib and colony formation was determined as mentioned in method. […] (FIGS. 2A&3A). […] There was a pronounced inhibition of colony formation (about 80%) observed with combination of the compound of Formula I and palbociclib treatment. […] There was a pronounced inhibition of colony formation (about 60%) observed with combination of the compound of Formula I and palbociclib treatment.

[3] = tested on: KRAS^G12V mutated SW620 cells; assay: Clonogenic assay (colony formation), SW620; assay type: cell-based; settings: for colony formation (in words): SW620, 4000 cells per well, 14 days, crystal violet, various concentrations
Experimental: as §1, §2, §3, §4

[4] = tested on: KRAS^G12D mutated LS-180 cells; assay: Clonogenic assay (colony formation), LS-180; assay type: cell-based; settings: for colony formation (in words): LS-180, 4000 cells per well, 14 days, crystal violet, various concentrations
Experimental: as §1, §2, §3
(§5) The LS-180 and Gp2D cells were split onto 6 well plates (4000 and 8000 calls per well respectively). After overnight incubation, the cells were treated with the compound of Formula I alone and treated in combination with palbociclib and colony formation was determined as mentioned in method. […] (FIGS. 4A&5A). […] There was a pronounced inhibition of colony formation (about 50%) observed with combination of the compound of Formula I and palbocilib treatment. […] There was a pronounced inhibition of colony formation (about 50%) observed with combination of the compound of Formula I and palbocilib treatment.

[5] = tested on: KRAS^G12D mutated Gp2D cells; assay: Clonogenic assay (colony formation), Gp2D; assay type: cell-based, human; settings: for colony formation (in words): 8000 cells per well, 14 days, crystal violet, various concentrations
Experimental: as §1, §2, §3, §5

[6] = tested on: KRAS^G12S mutant NSCLC xenograft model A549; assay: Antitumor efficacy in A549 xenograft mouse model; assay type: in vivo, Female Balb/c nude mice; settings: 28 days
Experimental: Reagents: The vehicle/control article, 100 mM acetic acid in deionized water, with pH adjustment to 4.8-5.0, was prepared and stored under ambient conditions throughout the 28-day administration in mice. The test article compound of Formula I was freshly prepared in vehicle of 100 mM acetic buffer weekly and stored under ambient conditions. The combination agent palbociclib was freshly prepared in vehicle of 50 mM Sodium Lactate Buffer, pH 3.8-4.0 weekly and stored at 2-8° C.
Animals: Female Balb/c nude mice were purchased from the Beijing Vital River Laboratory Animal Technology Co., Ltd. Mice were hosted at special pathogen-free (SPF) environment of vivarium facility and acclimated to their new environment for at least 3 days prior to initiation of any experiments. Mice were between 6-8 weeks of age at the time of implantation.
Preparation of xenograft model: A549 was a human lung cancer cell line that harbored a KRASG12S mutation. The A549 cell line was purchased from the American Type Culture Collection (ATCC® CCL-185™). A549 cells were cultured in medium containing RPMI1640 plus 10% Fetal Bovine Serum (FBS) at 37° C. in an atmosphere of 5% CO2 in air. The medium was renewed every 2 to 3 days and tumor cells were routinely sub-cultured at a confluence of 80-90% by trypsin-EDTA. The cells growing in an exponential growth phase were harvested and counted for inoculation.
A549 tumor cells were implanted into mice subcutaneously. Briefly, 200 μL cell suspensions containing 5×10^6 tumor cells mixed with 50% Matrigel were subcutaneously implanted into the right flank of mouse using a syringe. Animal health and tumor growth were monitored daily. Tumor volume was measured twice a week by caliper when tumors were palpable and measurable. When tumor volumes reached a mean of 200 mm^3 (range of 152-259 mm^3), tumor-bearing mice were randomized into different groups with 8 mice in each group. The randomization date was denoted as treatment day 0.
Treatment: Treatment started on the day of randomization. The treatment start day was denoted as treatment day 0. Mice were dosed by oral administration of vehicle control solution, the compound of Formula I at 10 mg/kg/dose BID, the compound of Formula I at 30 mg/kg QD, or palbociclib at 25 mg/kg QD monotherapy treatment groups. Two additional groups received combination treatment of the compound of Formula I and palbociclib, one dosing the compound of Formula I at 10 mg/kg/dose BID with palbociclib at 25 mg/kg QD and the other dosing the compound of Formula I at 30 mg/kg QD with palbociclib at 25 mg/kg QD. The dosing volume for each compound was 5 mL/kg and interval of BID regimen was 8 hours. Palbociclib was dosed at one-hour post the compound of Formula I QD or first BID dose in combination groups. […] Per this practice, mice in the compound of Formula I at 10 mg/kg/dose BID monotherapy group and in the compound of Formula I at 10 mg/kg/dose BID with palbociclib at 25 mg/kg QD combination group were supplied with DietGel food starting on treatment day 20 and continuing through the remaining study period. Mice in the compound of Formula I at 30 mg/kg QD monotherapy group were supplied with DietGel food starting on treatment day 17 and continuing through the remaining study period. The study was terminated on treatment day 28 as being defined in the study protocol.
Measurements and calculations: Conditions of animal health and clinical signs of toxicity were monitored daily. Subcutaneous tumor volumes and mouse body weights were measured twice a week by caliper and balance, respectively. Tumor volume, percent of tumor growth inhibition (% TGI), percent of tumor regression, percent of body weight change (% BWC), and treatment related body weight loss (% trBWL) were calculated based on following formulas: […]
Percent of tumor growth inhibition (% TGI) • vii.
[formula] • viii. TVTi was the group mean tumor volume (TV) of treatment group at last treatment day • ix. […]

[7] = Body weight change and tolerability in A549 xenograft study; assay type: in vivo, Female Balb/c nude mice; settings: for treatment related body weight loss (trBWL) category: palbociclib 25 mg/kg QD, Formula I 10 mg/kg BID and 30 mg/kg QD, both combinations with palbociclib 25 mg/kg QD
Experimental: Treatment: Treatment started on the day of randomization. The treatment start day was denoted as treatment day 0. Mice were dosed by oral administration of vehicle control solution, the compound of Formula I at 10 mg/kg/dose BID, the compound of Formula I at 30 mg/kg QD, or palbociclib at 25 mg/kg QD monotherapy treatment groups. Two additional groups received combination treatment of the compound of Formula I and palbociclib, one dosing the compound of Formula I at 10 mg/kg/dose BID with palbociclib at 25 mg/kg QD and the other dosing the compound of Formula I at 30 mg/kg QD with palbociclib at 25 mg/kg QD. The dosing volume for each compound was 5 mL/kg and interval of BID regimen was 8 hours. Palbociclib was dosed at one-hour post the compound of Formula I QD or first BID dose in combination groups. […] The study was terminated on treatment day 28 as being defined in the study protocol.
Measurements and calculations: Conditions of animal health and clinical signs of toxicity were monitored daily. Subcutaneous tumor volumes and mouse body weights were measured twice a week by caliper and balance, respectively. Tumor volume, percent of tumor growth inhibition (% TGI), percent of tumor regression, percent of body weight change (% BWC), and treatment related body weight loss (% trBWL) were calculated based on following formulas:
[formula] [formula] [formula] • i. BWdx was body weight group mean at treatment day x • ii. BWd0 was body weight group mean at treatment day 0
Percentage of treatment related body weight loss at treatment day x (% trBWLdx) was calculated based on the following: • iii. If % BWC in the treatment group was positive at treatment day x: % trBWLdx=0% • iv. If % BWC was negative in both the control and treatment groups at treatment day • x:
Treatment related body weight loss (trBWL) was categorized based on the following criteria: x≤5% was no loss, 5%<x≤10% was mild loss, 10%<x≤20% was moderate loss and x>20% was severe loss.

## COCOC[C@H]1C[C@H]2COc3c(Sc4cnc(N5CCC6(CC5)CO[C@@H](C)[C@H]6N)c(CO)n4)ccnc3N2C1 [compound of Formula I, (3-((3S,4S)-4-amino-3-methyl-2-oxa-8-azaspiro[4.5]decan-8-yl)-6-(((6aS,8S)-8-((methoxymethoxy)methyl)-6a,7,8,9-tetrahydro-6H-pyrido[3,2-b]pyrrolo[1,2-d] [1,4]oxazin-4-yl)thio)pyrazin-2-yl)methanol]
[1]
  colony formation (in words): inhibited the colony formation minimally
  reduction of colony formation: about 10%
[2]
  colony formation (in words): inhibited the colony formation minimally
[2]; NCI-H441, FIG. 2B
  colony formation on increasing the concentration of Formula I: robust inhibition of colony formation
[2]; NCI-H441, Formula I 250 nM alone, FIG. 2B
  colony formation (treatment showed about x% of colony formation): about 40%
[3]
  colony formation (in words): inhibited the colony formation minimally
[3]; SW620, Formula I 250 nM alone, FIG. 3B
  colony formation (treatment showed about x% of colony formation): about 10%
[3]; SW620, single agent and combination, FIG. 3B
  colony formation on increasing the concentration of Formula I: robust inhibition of colony formation
[4]
  colony formation (in words): inhibited the colony formation minimally
[4]; LS-180, Formula I 250 nM alone, FIG. 4B
  colony formation (treatment showed about x% of colony formation): about 10%
[5]
  colony formation (in words): inhibited the colony formation minimally
[5]; Formula I 250 nM alone, FIG. 5B
  colony formation (treatment showed about x% of colony formation): about 20%
[6]; Formula I 10 mg/kg BID oral
  % TGI (last treatment day): 52%
  % Tumor regression (last treatment day): 0%
[6]; Formula I 30 mg/kg QD oral
  % TGI (last treatment day): 70%
  % Tumor regression (last treatment day): 0%
[7]; 28-day treatment period, both Formula I monotherapy groups and both combination groups
  clinical signs of toxicity or mortality: no clinical signs of toxicity or mortality were observed
[7]; 28 days oral
  treatment related body weight loss (trBWL) category: mild trBWL

## CC(=O)c1c(C)c2cnc(Nc3ccc(N4CCNCC4)cn3)nc2n(C2CCCC2)c1=O [Palbociclib, reference compound]
[1]
  colony formation (in words): inhibition of colony formation dose dependently
  reduction of colony formation: about 10%
[2]; Homo sapiens, NCI-H441, palbociclib 100 nM alone, FIG. 2B
  inhibition at 0.1 µM: ~60%
[2]
  colony formation (in words): inhibition of colony formation dose dependently
[3]; Homo sapiens, SW-620, SW620, palbociclib 100 nM alone, FIG. 3B
  inhibition at 0.1 µM: ~40%
[3]
  colony formation (in words): inhibition of colony formation dose dependently
[4]; Homo sapiens, LS180, LS-180, palbociclib 250 nM alone, FIG. 4B
  inhibition at 0.25 µM: ~40%
[4]
  colony formation (in words): inhibition of colony formation dose dependently
[5]
  colony formation (in words): inhibition of colony formation dose dependently
[5]; Homo sapiens, palbociclib 250 nM alone, FIG. 5B
  inhibition at 0.25 µM: ~40%
[6]; palbociclib 25 mg/kg QD oral
  % TGI (last treatment day): 15%
  % Tumor regression (last treatment day): 0%
[7]; 28 days oral, palbociclib 25 mg/kg QD monotherapy
  maximum trBWL: 400
[7]; 28 days oral
  treatment related body weight loss (trBWL) category: no trBWL
